Data taken from patent US11246924B2, “Alpha-helical peptide nanofibers as a self-adjuvanting vaccine platform” (Duke University, priority 2016, dated 2022).
Entries after “also recorded” stand apart in the source; their conditions may differ.

Experiments:
SGSG-Coil29 peptide = assay: IgG antibody response against the carrier SGSG-Coil29 sequence (ELISA); format: in vivo, C57BL/6 mice; settings: boosts weeks 4 and 7
Protocol: Two boost containing half the primary immunization doses were given on week 4 and week 7 for both groups. Sera were collected to measure the IgG production against SGSG-Coil29 peptide using ELISA.
Antibody responses against the carrier (SGSG Coil29 sequence) were also measured by ELISA for both PEPvIII-Coil29 group and PEPvIII-Coil29/PADRE-Coil29 group (FIG. 4).
We subsequently investigated the immunogenicity of the Coil29 peptide platform. Four groups of C57BL/6 mice were immunized subcutaneously with same amount of epitope peptides (2×10^−3M of PEPvIII epitopes, 100 μL per mouse) on week 0, and boosted twice with half of the primary doses (2×10^−3M of PEPvIII epitopes, 50 μL per mouse) at weeks 4 and 7. Mice primed with an emulsion of PEPvIII with complete Fruend's adjuvant (CFA), and boosted with PEPvIII and incomplete Fruend's adjuvant (IFA) served as a positive control. Sera were collected from all the groups at predesignated dates over 18 weeks, and analyzed for peptide-specific antibody titers via ELISA (FIG. 9). […] Strikingly, the second boost at week 7 elevated the antibody titer nearly 100-fold, with the highest titer level reaching about 10^5 at week 9. […] The considerable difference in antibody response between P-C and P-C/P groups underlined the importance of the T cell epitope (PADRE) in promoting antibody responses with the Coil29 platform. […]

splenocytes = assay: T-cell ELISPOT (IL-4, IFNγ) on splenocytes of immunized mice; format: cell-based, C57BL/6 mice
Protocol: T-Cell ELIspot: T-cell ELIspots were performed as described. Briefly, 0.25 million cells from the spleen were plated in each well of a 96-well ELIspot plate (Millipore, MSIPS4510), in 200 μL per well. The cells were then stimulated with peptide or left untreated as negative controls. […] Streptavidinalkaline phosphatase (3310-10) was purchased from Mabtech. Spots were developed using substrate Sigmafast BCIP/NBT (Sigma, B5655). Plates were imaged and enumerated using an ELISPOT reader (Cellular Technology, Ltd).
We further analyzed how the PADRE epitope dosing could impact the humoral response in the current platform (FIG. 10). Four groups of mice were immunized with Coil29 nanofibers formulated with different PADRE epitope concentrations ranging from 0 to 0.5×10^−3M in final concentration, and the PEPvIII-specific total IgG titers were monitored over 17 weeks (FIG. 10A). […] However, the difference in antibody response in relationship with PADRE dosing could possibly be caused by several reasons, including the use of a different B cell epitope. We are currently investigating the mechanism of this observation. It highlighted the significance in future application where the formulation of nanofibers should be fine-tuned for different epitopes induce optimal response. […]

[1] = tested on: PEPvIII epitope (EGFRvIII); assay: PEPvIII-specific IgG antibody titers in sera after subcutaneous immunization (ELISA); format: in vivo, C57BL/6 mice; settings: for PEPvIII-specific IgG antibody response: s.c. primary injection week 0 (2×10^−3 M PEPvIII epitope, 100 μL), half-dose boosts weeks 4 and 7, sera over 18 weeks
Protocol: Vaccine Preparation: To prepare PEPvIII-Coil29 peptide fibers solutions for immunization, the lyophilized peptides were first dissolved in 10×10^−3 M sterile acetate buffer (pH 4) at 8×10^−3 M and incubated overnight at […]. The peptide solutions were subsequently diluted to 2×10^−3 M in 1×PBS, and incubated 3 h at room temperature prior to immunization. For coassembled peptide fiber formation, PEPvIII-Coil29 and PADRE-Coil29 were weight out separately, and mixed on vortex for 5 mins before dissolved in 10×10^−3 M sterile acetate buffer (pH 4), and diluted in the same procedure as PEPvIII-Coil29 nanofiber preparation. To prepare CFA/IFA peptide emulsion for immunization, PEPvIII peptide was initially dissolved in 4×10^−3 M in sterile water, and equal volume of adjuvant solution was mixed in with peptide solution and vortexed for 45 min to bring the final concentration of peptide to 2×10^−3 M for injection.
Mice and Immunizations: Female 057B1/6 mice were purchased from Harlan laboratory and housed at the animal facility at the University of Chicago and Duke University. All procedures were approved by both the University of Chicago Institutional Animal Care and Use Committee (protocol 71-900) and the Duke Institutional Animal Care and Use Committee (protocol A314-15-12 19N). Mice (6-12 weeks old; age-matched within each experiment) were randomly assigned in groups of five for each condition based on previous findings that this size was sufficient to distinguish responding versus nonresponding groups. Anesthetized mice were immunized subcutaneously with the indicated solutions (2×50 μL at the shoulders) and boosted where indicated with half-doses (2×25 μL) after 4 weeks and 7 weeks. Sera were collected from the submandibular (cheek) vein for analysis via ELISA. Mice were sacrificed 7 d after the final immunization, and the cells from the draining lymph nodes (axillary, brachial, and inguinal) were collected.
ELISA for Serum Antibodies: Serum was analyzed for antigenspecific Ig (Anti-IgG (H+L), Jackson Immuno Research, Cat #115-035-003) or IgG (gamma-specific, #115-035-071) by ELISA, as previously described (Egelman, E. H., et al. Structure 2015, 23, 280-28). To detect E214-specifi c antibodies, the plate was coated with 5 μg/mL E214-ahx-C (provided by Merck) in PBS or with 5 μg/mL streptavidin (Sigma #85878) followed by 10 μg/mL E214-PEG-biotin in PBS. […]
Peptides were synthesized by solid phase peptide synthesis by methods known in the art. […] Antibody titers were determined using ELISA.
We subsequently investigated the immunogenicity of the Coil29 peptide platform. […] Sera were collected from all the groups at predesignated dates over 18 weeks, and analyzed for peptide-specific antibody titers via ELISA (FIG. 9). […]

[2] = tested on: dendritic cells (CD11c+MHCII+F4/80−); assay: Uptake of TAMRA labelled peptides by dendritic cells in vivo (flow cytometry of peritoneal lavage fluid); design: species or system C57BL/6 mice; settings: TAMRA labelled peptide, i.p. injection, peritoneal lavage 20 h after injection
Protocol: (§1) Antibodies and Flow Cytometry: Antibodies were purchased from eBioscience unless specified. Flow cytometry was performed using LSRII blue (BD). FlowJo (Tree Star Inc.) was used in the analysis of flow data. For analysis of cell recruitment to the peritoneal cavity, cells isolated from i.p. lavage fluid were stained and analyzed as described.
(§2) To examine whether the epitope-bearing nanofibers could be internalized by APCs, C57BL/6 mice were immunized via i.p. injection with 1×PBS, or PEPvIII or P-C peptides fluorescently labelled with TAMRA (FIG. 8). […] The peritoneal lavage fluid was collected 20 h after injections, to analyze for the percentage of TAMRA positive DCs (CD11c^+MHCII^+F4/80^−) and MΦ (CD11c^−F4/80^+) using flow cytometry (FIG. 18).

[3] = tested on: macrophages (CD11c−F4/80+); assay: Uptake of TAMRA labelled peptides by macrophages in vivo (flow cytometry of peritoneal lavage fluid); design: species or system C57BL/6 mice; settings: TAMRA labelled peptide, i.p. injection, peritoneal lavage 20 h after injection
Protocol: as §1, §2

| Substance | IgG antibody response against SGSG-Coil29 (SGSG-Coil29 peptide) | IgG antibody response against SGSG-Coil29 (SGSG-Coil29 peptide; listed as PEPvIII-Coil29) | T cell IFNγ and IL4 response (ELISPOT) (splenocytes; splenocytes collected on week 18, stimulated with PADRE or PEPvIII peptide) | PEPvIII-specific total IgG titers, PADRE dosing study ([1]; PADRE 0 or 0.05×10^−3 M final concentration, monitored over 17 weeks) | PEPvIII-specific IgG antibody response [1] | PEPvIII-specific IgG antibody response ([1]; listed as PEPvIII-Coil29) | percentage of TAMRA positive dendritic cells [2] | percentage of TAMRA positive macrophages [3] | concentration above which the ELISPOT response saturated (splenocytes; preliminary experiments) |
| --- | --- | --- | --- | --- | --- | --- | --- | --- | --- |
| NH2-LEEKKGNYVVTDH SGSG QARILEADAEILRAYARILEAHAEILRAQ-Amide (H-LEEKKGNYVVTDHSGSGQARILEADAEILRAYARILEAHAEILRAQ-NH2) [P-C] | gradually diminished to a negligible level after the total IgG titers peaked at week 9 | self-limiting, returning to baseline levels after 16 weeks | responded to neither PADRE peptide nor PEPvIII peptide | negligible levels of IgG | unable to raise a significant level of epitope-specific IgG antibody titer | very weak responses | – | – | – |
| NH2-LEEKKGNYVVTDH-Amide [PEPvIII, reference compound] | – | – | – | – | did not elicit antibody responses; also recorded: failed to elicit any antibody response | – | statistically indistinguishable from the 1×PBS negative control group | statistically indistinguishable from the 1×PBS negative control group | – |
| NH2-aKXVAAVVTLKAa-Amide [PADRE, reference compound] | – | – | – | – | – | – | – | – | above 0.5×10^−6 M |
